IC50 data for 27 compounds are collected here from patent US9266883B2, “Ring-fused bicyclic pyridyl derivatives as FGFR4 inhibitors” (Novartis AG, priority 2013, dated 2016).

Molecules are shown by their SMILES. Where two headings read alike, the source gives them in different places.

As usually defined, the IC50 is the concentration that inhibits the measured activity by half.

For one experiment, the target named is Tel-FGFR4 (Homo sapiens (Human), UniProt P22455). Briefly: In vitro cellular kinase assay for FGFR4 (BaF3-Tel-FGFR4 cells, MSD capture ELISA of tyrosine phosphorylation). The experiment is classed as cell-based. Background: ELISA stands for enzyme-linked immunosorbent assay.
Sequence of Tel-FGFR4 (P22455 other isoform, or with tags, fused parts or gaps): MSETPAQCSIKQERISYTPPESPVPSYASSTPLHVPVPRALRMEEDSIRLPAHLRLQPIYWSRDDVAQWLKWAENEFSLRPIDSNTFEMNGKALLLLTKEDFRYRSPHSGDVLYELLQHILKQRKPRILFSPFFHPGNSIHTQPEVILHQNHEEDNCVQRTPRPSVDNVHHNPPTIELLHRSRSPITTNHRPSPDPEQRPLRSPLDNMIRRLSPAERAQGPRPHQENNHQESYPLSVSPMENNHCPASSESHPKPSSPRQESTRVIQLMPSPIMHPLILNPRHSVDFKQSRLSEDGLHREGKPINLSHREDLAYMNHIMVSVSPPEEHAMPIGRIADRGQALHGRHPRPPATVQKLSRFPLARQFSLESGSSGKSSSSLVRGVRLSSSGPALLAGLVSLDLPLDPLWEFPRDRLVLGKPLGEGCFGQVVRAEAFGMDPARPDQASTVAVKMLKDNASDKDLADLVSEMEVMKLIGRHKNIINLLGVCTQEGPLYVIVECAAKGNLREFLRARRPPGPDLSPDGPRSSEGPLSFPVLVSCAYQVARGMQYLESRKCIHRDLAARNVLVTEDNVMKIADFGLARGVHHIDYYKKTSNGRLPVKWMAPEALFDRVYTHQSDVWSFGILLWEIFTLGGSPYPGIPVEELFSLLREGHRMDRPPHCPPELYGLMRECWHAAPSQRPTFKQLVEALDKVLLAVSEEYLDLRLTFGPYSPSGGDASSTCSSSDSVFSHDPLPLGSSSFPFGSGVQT
The target of experiment [1] is FGFR4 (GST-FGFR4(388-802)) (Homo sapiens (Human), UniProt P22455). Kind of experiment: In-vitro biochemical kinase assay for FGFR4 (Caliper microfluidic mobility shift).
Sequence of FGFR4 (GST-FGFR4(388-802)) (P22455 388-802): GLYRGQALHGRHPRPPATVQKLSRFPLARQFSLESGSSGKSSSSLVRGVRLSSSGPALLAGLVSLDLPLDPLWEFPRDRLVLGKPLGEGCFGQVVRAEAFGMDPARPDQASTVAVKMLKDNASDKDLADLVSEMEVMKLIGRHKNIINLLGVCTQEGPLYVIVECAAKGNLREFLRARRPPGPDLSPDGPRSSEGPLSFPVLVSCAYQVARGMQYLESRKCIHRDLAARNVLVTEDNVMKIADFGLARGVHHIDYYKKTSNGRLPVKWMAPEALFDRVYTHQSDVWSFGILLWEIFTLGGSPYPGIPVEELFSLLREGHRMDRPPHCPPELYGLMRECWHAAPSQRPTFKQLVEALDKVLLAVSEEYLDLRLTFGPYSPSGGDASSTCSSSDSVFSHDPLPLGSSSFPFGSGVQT
The mark [2] stands for this setting: Cellular BaF3 FGFR4 assay, read-out: Cellular IC50.
The mark [3] stands for this setting: biochemical FGFR4 assay, read-out: Biochemical IC50.
Setting [4] is: BaF3-Tel-FGFR4 cells, 1 hour incubation, read-out: Cellular BaF3 FGFR4 IC50.
[5] abbreviates: read-out: Biochemical FGFR4 IC50.

Consider `COC[C@@H](C)Oc1cc(NC(=O)N2CCCc3cc(CN4CCCC4=O)c(C=O)nc32)ncc1C#N` [(R)-N-(5-cyano-4-((1-methoxypropan-2-yl)oxy)pyridin-2-yl)-7-formyl-6-((2-oxopyrrolidin-1-yl)methyl)-3,4-dihydro-1,8-naphthyridine-1(2H)-carboxamide], for which the IC50 was 2.3 nM at Tel-FGFR4 (setting [2]) and 0.3 nM in experiment [1] (setting [3]).
On to `COCCNc1cc(NC(=O)N2CCCc3cc(-c4cn(C)nc4C)c(C=O)nc32)ncc1C#N` [Example 250, N-(5-cyano-4-((2-methoxyethyl)amino)pyridin-2-yl)-6-(1,3-dimethyl-1H-pyrazol-4-yl)-7-formyl-3,4-dihydro-1,8-naphthyridine-1(2H)-carboxamide], for which the IC50 was determined as 14.5 nM at Tel-FGFR4 (setting [4]) and 6.7 nM in experiment [1] (setting [5]).
The corresponding values for `CCCCC(O)c1ccc(NC(=O)N2CCCc3ccc(C=O)nc32)nc1` (racemic) [Example 22, 7-formyl-N-(5-(1-hydroxypentyl)pyridin-2-yl)-3,4-dihydro-1,8-naphthyridine-1(2H)-carboxamide] are 2610 nM and 230 nM.
Regarding `N#Cc1cnc(NC(=O)N2CCCc3cc(C(F)F)c(C=O)nc32)cc1Cl` [N-(4-chloro-5-cyanopyridin-2-yl)-6-(difluoromethyl)-7-formyl-3,4-dihydro-1,8-naphthyridine-1(2H)-carboxamide], the IC50 was determined as 223 nM at Tel-FGFR4 (setting [2]) and 57 nM in experiment [1] (setting [3]).
The matching figures for `COCCNc1cc(NC(=O)N2CCCc3cc(CN4C[C@H](N(C)C)CC4=O)c(C=O)nc32)ncc1C#N` [(R)-N-(5-cyano-4-((2-methoxyethyl)amino)pyridin-2-yl)-6-((4-(dimethylamino)-2-oxopyrrolidin-1-yl)methyl)-7-formyl-3,4-dihydro-1,8-naphthyridine-1(2H)-carboxamide]: 6.1 nM and 0.2 nM.
The corresponding values for `CC(C)(O)CNc1cc(NC(=O)N2CCCc3cc(C(F)F)c(C=O)nc32)ncc1C#N` [N-(5-cyano-4-((2-hydroxy-2-methylpropyl)amino)pyridin-2-yl)-6-(difluoromethyl)-7-formyl-3,4-dihydro-1,8-naphthyridine-1(2H)-carboxamide] are 10.3 nM and 1.6 nM.
The matching figures for `COC[C@@H](C)Nc1cc(NC(=O)N2CCCc3cc(CN(C)C(C)=O)c(C=O)nc32)ncc1C#N` [(R)-N-(5-cyano-4-((1-methoxypropan-2-yl)amino)pyridin-2-yl)-7-formyl-6-((N-methylacetamido)methyl)-3,4-dihydro-1,8-naphthyridine-1(2H)-carboxamide]: 4.5 nM and 1.8 nM.
`COC(C)CNc1cc(NC(=O)N2CCCc3cc(C(F)F)c(C=O)nc32)ncc1C#N` (stereo not drawn) [N-(5-cyano-4-((2-methoxypropyl)amino)pyridin-2-yl)-6-(difluoromethyl)-7-formyl-3,4-dihydro-1,8-naphthyridine-1(2H)-carboxamide]: the IC50 on Tel-FGFR4 (setting [2]) was 18.8 nM; in experiment [1] (setting [3]) it was 1.1 nM.
`O=Cc1ccc2c(n1)N(C(=O)Nc1cc(Cl)c(Cl)cn1)CCC2` [Example 2, N-(4,5-dichloropyridin-2-yl)-7-formyl-3,4-dihydro-1,8-naphthyridine-1(2H)-carboxamide]: the IC50 was over 3000 nM at Tel-FGFR4 (setting [4]) and 30 nM in experiment [1] (setting [5]).
The corresponding values for `CC(=O)N(C)Cc1cc2c(nc1C=O)N(C(=O)Nc1cc(SC(C)C)c(C#N)cn1)CCC2` [Example 240, N-(5-cyano-4-(isopropylthio)pyridin-2-yl)-7-formyl-6-((N-methylacetamido)methyl)-3,4-dihydro-1,8-naphthyridine-1(2H)-carboxamide] are 11.1 nM and under 0.1 nM.
As to `COC[C@H](C)Nc1cc(NC(=O)N2CCCc3cc(CN(C)C(C)=O)c(C=O)nc32)ncc1C#N` [(S)-N-(5-cyano-4-((1-methoxypropan-2-yl)amino)pyridin-2-yl)-7-formyl-6-((N-methylacetamido)methyl)-3,4-dihydro-1,8-naphthyridine-1(2H)-carboxamide], the IC50 was determined as 4.2 nM on Tel-FGFR4 (setting [2]) and 1 nM in experiment [1] (setting [3]).
The corresponding values for `CC(C)Oc1cc(NC(=O)N2CCCc3cc(CN4CCNC(=O)C4)c(C=O)nc32)ncc1C#N` [N-(5-cyano-4-isopropoxypyridin-2-yl)-7-formyl-6-((3-oxopiperazin-1-yl)methyl)-3,4-dihydro-1,8-naphthyridine-1(2H)-carboxamide] are 23.5 nM and 1.6 nM.
For the compound `CC(C)Nc1cc(NC(=O)N2CCCc3cc(CN(C)C(=O)CN(C)C)c(C=O)nc32)ncc1C#N` [N-(5-cyano-4-(isopropylamino)pyridin-2-yl)-6-((2-(dimethylamino)-N-methylacetamido)methyl)-7-formyl-3,4-dihydro-1,8-naphthyridine-1(2H)-carboxamide], the figures for the IC50 (at Tel-FGFR4 (setting [2]); in experiment [1] (setting [3])) were 11.5 nM and 0.6 nM, respectively.
Turning to `CC(C)(O)CNc1cc(NC(=O)N2CCCc3cc(CO)c(C=O)nc32)ncc1C#N` [Example 86, N-(5-cyano-4-((2-hydroxy-2-methylpropyl)amino)pyridin-2-yl)-7-formyl-6-(hydroxymethyl)-3,4-dihydro-1,8-naphthyridine-1(2H)-carboxamide], the values for the half-inhibitory concentration (IC50) (on Tel-FGFR4 (setting [4]); in experiment [1] (setting [5])) were 12 nM and 4.9 nM, respectively.
`COCCNc1cc(NC(=O)N2CCCc3cc(-c4ccncc4)c(C=O)nc32)ncc1C#N` [N-(5-cyano-4-((2-methoxyethyl)amino)pyridin-2-yl)-7-formyl-6-(pyridin-4-yl)-3,4-dihydro-1,8-naphthyridine-1(2H)-carboxamide]: the IC50 was 14.5 nM at Tel-FGFR4 (setting [2]) and 3.1 nM in experiment [1] (setting [3]).
The corresponding values for `COc1cc(NC(=O)N2CCCc3cc(CN4CCN(C)CC4=O)c(C=O)nc32)ncc1C#N` [N-(5-cyano-4-methoxypyridin-2-yl)-7-formyl-6-((4-methyl-2-oxopiperazin-1-yl)methyl)-3,4-dihydro-1,8-naphthyridine-1(2H)-carboxamide] are 10.2 nM and 4.8 nM.
The corresponding values for `CC(C)Oc1cc(NC(=O)N2CCCc3cc(CN(C)C(=O)C(C)C)c(C=O)nc32)ncc1C#N` [N-(5-cyano-4-isopropoxypyridin-2-yl)-7-formyl-6-((N-methylisobutyramido)methyl)-3,4-dihydro-1,8-naphthyridine-1(2H)-carboxamide] are 12.5 nM and 1.2 nM.
The matching figures for `COCCNc1cc(NC(=O)N2CCCc3cc(CN4CCN(C)C(=O)C4)c(C=O)nc32)ncc1C#N` [N-(5-cyano-4-((2-methoxyethyl)amino)pyridin-2-yl)-7-formyl-6-((4-methyl-3-oxopiperazin-1-yl)methyl)-3,4-dihydro-1,8-naphthyridine-1(2H)-carboxamide]: 7.1 nM and 1.3 nM.
For the compound `CC(C)Oc1cc(NC(=O)N2CCCc3cc(CN4CCN(C)C(=O)C4)c(C=O)nc32)ncc1C#N` [N-(5-cyano-4-isopropoxypyridin-2-yl)-7-formyl-6-((4-methyl-3-oxopiperazin-1-yl)methyl)-3,4-dihydro-1,8-naphthyridine-1(2H)-carboxamide], the IC50 is 17 nM on Tel-FGFR4 (setting [2]) and 1.7 nM in experiment [1] (setting [3]).
The corresponding values for `CCNc1cc(NC(=O)N2CCCc3cc(CN4CCN(C)CC4=O)c(C=O)nc32)ncc1C#N` [N-(5-cyano-4-(ethylamino)pyridin-2-yl)-7-formyl-6-((4-methyl-2-oxopiperazin-1-yl)methyl)-3,4-dihydro-1,8-naphthyridine-1(2H)-carboxamide] are 12 nM and 3.4 nM.
The matching figures for `CC(C)COc1cc(NC(=O)N2CCCc3cc(C(F)F)c(C=O)nc32)ncc1C#N` [N-(5-cyano-4-isobutoxypyridin-2-yl)-6-(difluoromethyl)-7-formyl-3,4-dihydro-1,8-naphthyridine-1(2H)-carboxamide]: 139 nM and 30 nM.
Take `N#Cc1cnc(NC(=O)N2CCCc3ccc(C=O)nc32)cc1Cl` [Example 24, N-(4-chloro-5-cyanopyridin-2-yl)-7-formyl-3,4-dihydro-1,8-naphthyridine-1(2H)-carboxamide]: the IC50 was over 3000 nM at Tel-FGFR4 (setting [4]) and 24 nM in experiment [1] (setting [5]).
The matching figures for `N#Cc1cnc(NC(=O)N2CCCc3cc(CO)c(C=O)nc32)nc1O[C@H]1CCOC1` [Example 70, (S)-N-(5-cyano-4-((tetrahydrofuran-3-yl)oxy)pyrimidin-2-yl)-7-formyl-6-(hydroxymethyl)-3,4-dihydro-1,8-naphthyridine-1(2H)-carboxamide]: 43 nM and 27 nM.
The corresponding values for `N#Cc1cnc(NC(=O)N2CCCc3cc(CO)c(C=O)nc32)cc1OCC1CCCO1` (racemic) [Example 43, N-(5-cyano-4-((tetrahydrofuran-2-yl)methoxy)pyridin-2-yl)-7-formyl-6-(hydroxymethyl)-3,4-dihydro-1,8-naphthyridine-1(2H)-carboxamide] are 7.5 nM and 5.2 nM.
With `COCCNc1cc(NC(=O)N2CCCc3cc(CN(C)C(=O)CN(C)C)c(C=O)nc32)ncc1C#N` [N-(5-cyano-4-((2-methoxyethyl)amino)pyridin-2-yl)-6-((2-(dimethylamino)-N-methylacetamido)methyl)-7-formyl-3,4-dihydro-1,8-naphthyridine-1(2H)-carboxamide], the IC50 on Tel-FGFR4 (setting [2]) was 6.1 nM; in experiment [1] (setting [3]), 0.2 nM.
For `COC[C@H](C)Nc1cc(NC(=O)N2CCCc3cc(CN4CCCC4=O)c(C=O)nc32)ncc1C#N` [(S)-N-(5-cyano-4-((1-methoxypropan-2-yl)amino)pyridin-2-yl)-7-formyl-6-((2-oxopyrrolidin-1-yl)methyl)-3,4-dihydro-1,8-naphthyridine-1(2H)-carboxamide], the IC50 at Tel-FGFR4 (setting [2]) is 4.9 nM; in experiment [1] (setting [3]), 1.9 nM.
As to `COCCNc1cc(NC(=O)N2CCCc3cc(CN4CC[N+](C)([O-])CC4=O)c(C=O)nc32)ncc1C#N` (stereo not drawn) [Example 222, 4-((8-((5-cyano-4-((2-methoxyethyl)amino)pyridin-2-yl)carbamoyl)-2-formyl-5,6,7,8-tetrahydro-1,8-naphthyridin-3-yl)methyl)-1-methyl-3-oxopiperazine 1-oxide], the half-maximal inhibitory concentration (IC50) is 41.3 nM at Tel-FGFR4 (setting [4]) and under 4.8 nM in experiment [1] (setting [5]).
